From US20070092444A1, “Inhibition of inward sodium currents in cancer” (priority 2003, published 2007)
“Also recorded” adds a separate entry of the source.

Key:
[1] = system: constitutive amiloride-sensitive inward Na^+ current in high-grade glioma (GBM) cells; assay: Whole-cell patch clamp, freshly resected and primary cultured high-grade glioma (Grade III/IV, GBM) cells; assay type: cell-based, human
Excerpt: (§1) FIGS. 2A-C show representative whole-cell patch clamp recordings.
(§2) FIGS. 4A and B show summary I-V curves of freshly resected normal astrocytes (FIG. 4A) and GBM cells (FIG. 4B). Inward currents (−60 mV) were −7.5±1.2 pA (normal) and −43.8±14.5 pA (GBM). Outward currents (+40 mV) averaged 42.2±2.4 pA and 47.2±12.5 pA for normal and GBMs, respectively. FIGS. 4C and D show summary amiloride-sensitive (difference) currents of freshly resected normal astrocytes (FIG. 4C) and GBM cells (FIG. 4D).
(§3) A constitutive amiloride-sensitive inward Na^+ conductance has been reported in human high-grade glioma cells. […] These inward Na^+ currents were not present in normal astrocytes or in low-grade astrocytomas (e.g., pilocytic astrocytomas). However, the composition of the channels responsible for the inward Na^+ conductance has not been reported. FIGS. 2A-C show representative whole cell patch-clamp measurements on tissue derived from a freshly resected human glioblastoma multiforme (GBM; WHO grade IV), normal astrocytes obtained from patients undergoing surgery for intractable epilepsy, and primary cultures of different grade glial tumors. […] However, there was no significant inward Na^+ current in normal astrocytes and Grades I and II astrocytoma cells (FIG. 2C).
Summary current-voltage (I-V) curves are presented for normal astrocytes and GBM cells in FIG. 4A and FIG. 4B, respectively, while difference I-V curves for normal astrocytes and GBM cells are presented in FIG. 4C and FIG. 4D, respectively. The GBM cells are depolarized by an average of 31 mV compared to the normal astrocytes under these recording conditions. The depolarized zero current membrane potential is due to the presence of an enhanced Na^+ conductance as is shown in the difference I-V curves.
(§4) FIG. 19A show representative whole-cell patch clamp recordings of ZR-75-1 and SKMEL-2 cells in the basal state.

[2] = system: whole-cell currents of normal human astrocytes; assay: Whole-cell patch clamp, normal human astrocytes; assay type: cell-based
Excerpt: as §1, §2
as §3, with “2C). […]” for “2C).”

[3] = system: inward Na^+ currents in SK-MG cells; assay: Whole-cell patch clamp, SK-MG glioma cells; assay type: cell-based, human
Method: (§5) FIGS. 7A-7C show representative whole-cell patch clamp recordings.
(§6) The amiloride-sensitive inward Na^+ currents are measured regardless of whether ASIC2 is absent or present (FIGS. 7A-D). Whole-cell patch clamp recordings were obtained from U87-MG, SK-MG, and D54-MG glioma cells in the basal state. […] This inhibition of the inward current occurred regardless of the absence or presence of ASIC2 mRNA (FIG. 7D) (as detected by RT-PCR as described above).
as §4

[4] = system: inward Na^+ currents in U87-MG cells; assay: Whole-cell patch clamp, U87-MG glioma cells; assay type: cell-based, human
Method: as §5, §6, §4

[5] = system: constitutive inward Na^+ current of ZR-75-1 breast carcinoma cells; assay: Whole-cell patch clamp, ZR-75-1 breast carcinoma cells; assay type: cell-based
Excerpt: (§7) FIGS. 5A-5C show representative whole-cell patch clamp recordings.
(§8) FIGS. 19A-19C show representative whole-cell patch clamp recordings.
(§9) A constitutive amiloride-sensitive inward Na^+ conductance was also observed in the breast carcinoma cell line ZR-75-1 and the melanoma cell line SKMEL-2. FIGS. 5A-C show representative whole cell patch-clamp measurements on ZR-75-1 cells and SKMEL-2 cells.
as §4

[6] = system: constitutive inward Na^+ current of SKMEL-2 melanoma cells; assay: Whole-cell patch clamp, SKMEL-2 melanoma cells; assay type: cell-based
Excerpt: as §7, §8, §9, §4

ASIC2 = target: T1, ASIC2 (Homo sapiens, UniProt Q16515); assay: Acid-activated currents in voltage-clamped Xenopus oocytes expressing ASIC2; assay type: cell-based; parameters: expressed in transfected cells; host or cells: Xenopus oocytes (cRNA injection); details: pHo 4.0, −60 mV
T1 sequence (Q16515 1-512): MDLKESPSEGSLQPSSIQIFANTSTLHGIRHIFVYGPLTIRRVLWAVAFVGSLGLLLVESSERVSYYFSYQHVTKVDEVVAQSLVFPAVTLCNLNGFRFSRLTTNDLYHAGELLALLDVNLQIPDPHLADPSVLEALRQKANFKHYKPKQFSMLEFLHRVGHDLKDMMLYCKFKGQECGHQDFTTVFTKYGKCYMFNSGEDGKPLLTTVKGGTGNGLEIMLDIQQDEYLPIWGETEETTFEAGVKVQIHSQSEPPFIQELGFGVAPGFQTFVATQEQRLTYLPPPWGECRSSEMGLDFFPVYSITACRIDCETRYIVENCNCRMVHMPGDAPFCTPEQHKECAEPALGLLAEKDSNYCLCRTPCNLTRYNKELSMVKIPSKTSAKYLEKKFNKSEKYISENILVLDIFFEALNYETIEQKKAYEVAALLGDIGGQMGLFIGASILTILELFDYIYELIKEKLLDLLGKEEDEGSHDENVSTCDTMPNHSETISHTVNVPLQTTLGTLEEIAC
Excerpt: (§10) FIGS. 8A-C show acid-activated ASIC currents in Xenopus oocytes. ASIC 2 (FIG. 8A), ASIC1 (FIG. 8B) and the combination of ASIC2 and ASIC1 (FIG. 8C) were examined. […] Each oocyte served as its own control.
(§11) Membrane potential was held at −60 mV, and the pHo was step decreased to 4.0 for 10 s, and then returned to 7.4 for 30 s before repeating the sequence.
(§12) Xenopus oocytes were used to express ASIC1 and ASIC2 mRNA individually and in combination. Oocyte preparation, cRNA injection, and two-electrode voltage clamp recordings were performed as described (33,67-69).
as §11

ASIC1 = target: T2, ASIC1 (Homo sapiens, UniProt P78348); assay: Acid-activated currents in voltage-clamped Xenopus oocytes expressing ASIC1; assay type: cell-based; details: 400 μM amiloride; pHo 4.0; −60 mV
T2 sequence (P78348 1-528): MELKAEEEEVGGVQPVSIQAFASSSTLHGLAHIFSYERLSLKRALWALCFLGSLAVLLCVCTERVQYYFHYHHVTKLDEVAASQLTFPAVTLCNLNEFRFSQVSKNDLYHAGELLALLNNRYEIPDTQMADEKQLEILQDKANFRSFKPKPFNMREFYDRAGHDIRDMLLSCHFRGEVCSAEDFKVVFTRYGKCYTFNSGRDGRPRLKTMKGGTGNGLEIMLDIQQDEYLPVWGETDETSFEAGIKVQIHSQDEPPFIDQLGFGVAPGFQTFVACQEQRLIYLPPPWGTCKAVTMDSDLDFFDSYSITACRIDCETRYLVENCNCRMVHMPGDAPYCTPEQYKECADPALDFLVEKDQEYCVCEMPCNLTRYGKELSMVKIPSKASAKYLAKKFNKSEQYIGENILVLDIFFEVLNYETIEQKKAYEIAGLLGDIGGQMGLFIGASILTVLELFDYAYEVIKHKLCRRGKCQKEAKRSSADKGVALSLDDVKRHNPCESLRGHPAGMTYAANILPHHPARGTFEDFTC
Excerpt: as §10, §11, §12, §11

Compound | block of constitutive inward Na^+ current ([1]; 10 nM peptide, freshly resected GBM) | block of inward basally activated currents ([1]; primary cultured GBM) | effect on whole-cell currents ([2]; PcTX1 (10 nM, FIG. 18B), normal human astrocytes) | block of constitutive inward Na^+ current ([3]; 10 nM peptide) | block of inward basally activated currents [4] | block of constitutive inward Na^+ current ([5]; 10 nM synthetic PcTX1) | block of constitutive inward Na^+ current ([6]; 10 nM synthetic PcTX1) | block of acid-induced inward currents (ASIC2; 1 nM peptide (FIG. 20)) | inhibition of inward Na^+ currents ([1]; 100 μM amiloride, Grade III and IV tumor cells, GBM) | effect on currents ([2]; 100 μM amiloride, normal astrocytes) | inhibition of inward Na^+ currents ([3]; 100 μM amiloride) | inhibition of inward Na^+ currents ([4]; 100 μM amiloride) | inhibition of inward currents ([5]; 100 μM amiloride) | inhibition of inward currents ([6]; 100 μM amiloride) | inhibition of acid-activated currents (ASIC1) | inhibition of acid-activated currents (ASIC2; 400 μM amiloride)
Psalmotoxin 1 [PcTX1] | blocked | similarly blocked | without effect | blocked | similarly blocked | blocked | blocked | not those inward Na^+ currents mediated by ASIC2; also recorded: not the inward currents mediated by ASIC2 |  |  |  |  |  |  |  | 
N=C(N)NC(=O)c1nc(Cl)c(N)nc1N [amiloride] |  |  |  |  |  |  |  |  | completely inhibited; also recorded: blocked; also recorded: significantly inhibited | did not affect | inhibited; also recorded: likewise blocked | inhibited; also recorded: likewise blocked | completely inhibited | completely inhibited | inhibited | inhibited
